Literature values, collected in PMC7070898 (Clinical and Translational Science, 2019).

Assays:
[1] = target: BTK (Homo sapiens, UniProt Q06187); conditions: single dose, cited from earlier work
[2] = patients receiving acalabrutinib ref 12; cited from earlier work

Chain of BTK (Q06187 whole entry): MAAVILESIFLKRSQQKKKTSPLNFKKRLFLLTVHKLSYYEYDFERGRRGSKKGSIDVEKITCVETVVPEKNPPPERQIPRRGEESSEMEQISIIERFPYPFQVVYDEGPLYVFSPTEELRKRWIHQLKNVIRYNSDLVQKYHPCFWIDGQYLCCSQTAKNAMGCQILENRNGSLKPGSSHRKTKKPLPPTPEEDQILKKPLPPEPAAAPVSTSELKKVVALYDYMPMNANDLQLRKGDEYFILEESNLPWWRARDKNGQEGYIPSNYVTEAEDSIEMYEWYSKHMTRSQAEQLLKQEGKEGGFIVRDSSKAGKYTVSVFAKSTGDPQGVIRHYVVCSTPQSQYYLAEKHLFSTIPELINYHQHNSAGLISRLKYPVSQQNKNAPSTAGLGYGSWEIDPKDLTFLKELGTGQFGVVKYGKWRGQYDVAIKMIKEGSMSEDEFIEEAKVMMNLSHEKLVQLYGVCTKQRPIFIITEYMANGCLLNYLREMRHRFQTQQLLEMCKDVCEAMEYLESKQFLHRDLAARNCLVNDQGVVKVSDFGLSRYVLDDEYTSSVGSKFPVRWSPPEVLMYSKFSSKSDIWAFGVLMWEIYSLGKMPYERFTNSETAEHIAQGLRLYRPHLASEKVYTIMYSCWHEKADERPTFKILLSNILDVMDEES

SMILES | BTK occupancy ([1]; five of six healthy subjects, ≤ 4 hours after administration ref 21) | duration of complete or near‐complete BTK occupancy ([1]; healthy subjects ref 21) | atrial fibrillation/flutter, patients [2]
C=CC(=O)Nc1cccc(Nc2nc(Nc3ccc(OCCOC)cc3)ncc2F)c1 [CC‐292] | > 98% | 8 to 24 h | –
CC#CC(=O)N1CCC[C@H]1c1nc(-c2ccc(C(=O)Nc3ccccn3)cc2)c2c(N)nccn12 [acalabrutinib] | – | – | 3%
